Experimental data published in patent publication US20150105252A1, “SUBSTITUTED PYRAZOLES AS HERBICIDES” (E I DU PONT DE NEMOURS AND COMPANY, priority 2013, published 2015).

Assays:
[1] = tested on: rice; test: Test B flood; assay type: in vivo, Oryza sativa; settings: 250 g ai/ha, visual rating on 0 to 100 scale (0 no effect, 100 complete control), 13 to 15 days
How it was run: (§1)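 Each compound is applied to the floodwater of pots holding 2-leaf seedlings, water standing 3 cm over the soil throughout. Plants stay in a greenhouse 13 to 15 days before visual scoring against controls from 0 (no effect) to 100 (complete control).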

[2] = tested on: barnyardgrass; test: Test B flood; assay type: in vivo, Echinochloa crus-galli; settings: 250 g ai/ha, visual rating on 0 to 100 scale (0 no effect, 100 complete control), 13 to 15 days
How it was run: as §1

[3] = tested on: blackgrass; test: Test C preemergence; assay type: in vivo, Alopecurus myosuroides; settings: for Blackgrass plant response rating / Plant response rating, Blackgrass: preemergence; for Plant response rating, Blackgrass: 125 g ai/ha, scale 0 to 100, 0 = no effect, 100 = complete control
How it was run: (§2)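 Visual rating, 0–100 scale (0 no effect, 100 complete control), vs untreated controls after 13–15 d greenhouse. Pre: seeds in loam/sand, treated at sowing. Post: plants in peat-based mix, 1- to 4-leaf (2–18 cm). Solvent + surfactant formulation, non-phytotoxic.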

[4] = tested on: wheat; test: Test C preemergence; assay type: in vivo, Triticum aestivum; settings: for Wheat plant response rating / Plant response rating, Wheat: preemergence; for Plant response rating, Wheat: 125 g ai/ha, scale 0 to 100, 0 = no effect, 100 = complete control
How it was run: as §2

[5] = tested on: lambsquarters; test: Test C preemergence; assay type: in vivo, Chenopodium album; settings: for Lambsquarters plant response rating / Plant response rating, Lambsquarters: preemergence; for Plant response rating, Lambsquarters: 125 g ai/ha, scale 0 to 100, 0 = no effect, 100 = complete control
How it was run: as §2

[6] = tested on: nutsedge, yellow; test: Test C preemergence; assay type: in vivo, Cyperus esculentus; settings: for Nutsedge, Yellow plant response rating / Plant response rating, Nutsedge, Yellow: preemergence; for Plant response rating, Nutsedge, Yellow: 125 g ai/ha, scale 0 to 100, 0 = no effect, 100 = complete control
How it was run: as §2

[7] = tested on: ryegrass, Italian; test: Test C postemergence; assay type: in vivo, Lolium multiflorum
How it was run: as §2

[8] = tested on: foxtail, giant; test: Test C postemergence; assay type: in vivo, Setaria faberii; settings: for Plant response rating (scale of 0 to 100 where 0 is no effect and 100 is complete control), Foxtail, Giant: Postemergence, 31 g ai/ha, visually evaluated after 13 to 15 days; for Foxtail, Giant plant response rating / Plant response rating, Foxtail, Giant: postemergence; for Foxtail, Giant plant response rating: 62 g ai/ha, scale 0 to 100
How it was run: as §2

[9] = tested on: johnsongrass; test: Test C postemergence; assay type: in vivo, Sorghum halepense; settings: for Plant response rating (scale of 0 to 100 where 0 is no effect and 100 is complete control), Johnsongrass: Postemergence, 31 g ai/ha, visually evaluated after 13 to 15 days; for Johnsongrass plant response rating / Plant response rating, Johnsongrass: postemergence; for Johnsongrass plant response rating: 62 g ai/ha, scale 0 to 100
How it was run: as §2

[10] = tested on: morningglory; test: Test C postemergence; assay type: in vivo, Ipomoea coccinea; settings: for Plant response rating (scale of 0 to 100 where 0 is no effect and 100 is complete control), Morningglory: Postemergence, 31 g ai/ha, visually evaluated after 13 to 15 days; for Morningglory plant response rating / Plant response rating, Morningglory: postemergence; for Morningglory plant response rating: 62 g ai/ha, scale 0 to 100
How it was run: as §2

[11] = tested on: nutsedge, yellow; test: Test C postemergence; assay type: in vivo, Cyperus esculentus; settings: for Plant response rating (scale of 0 to 100 where 0 is no effect and 100 is complete control), Nutsedge, Yellow: Postemergence, 31 g ai/ha, visually evaluated after 13 to 15 days; for Nutsedge, Yellow plant response rating / Plant response rating, Nutsedge, Yellow: postemergence; for Nutsedge, Yellow plant response rating: 62 g ai/ha, scale 0 to 100
How it was run: as §2

[12] = tested on: pigweed; test: Test C postemergence; assay type: in vivo, Amaranthus retroflexus; settings: for Pigweed plant response rating / Plant response rating, Pigweed: postemergence; for Pigweed plant response rating: 62 g ai/ha, scale 0 to 100
How it was run: as §2

[13] = tested on: oat, wild; test: Test C postemergence; assay type: in vivo, Avena fatua; settings: for Plant response rating (scale of 0 to 100 where 0 is no effect and 100 is complete control), Oat, Wild: Postemergence, 31 g ai/ha, visually evaluated after 13 to 15 days; for Oat, Wild plant response rating / Plant response rating, Oat, Wild: postemergence; for Oat, Wild plant response rating: 62 g ai/ha, scale 0 to 100
How it was run: as §2

[14] = 31 g ai/ha, visual rating, scale 0 to 100 (0 no effect, 100 complete control), 13 to 15 days
[15] = 62 g ai/ha, scale 0 to 100 (0 no effect, 100 complete control), 13 to 15 days
[16] = Postemergence, 31 g ai/ha, visually evaluated after 13 to 15 days
[17] = postemergence, 250 g ai/ha, scale 0 to 100 (0 no effect, 100 complete control)
[18] = postemergence, 125 g ai/ha, scale 0 to 100, 0 no effect, 100 complete control
[19] = 250 g ai/ha, scale 0 to 100 (0 no effect, 100 complete control)
[20] = 125 g ai/ha, scale 0 to 100, 0 no effect, 100 complete control
[21] = 250 g ai/ha, scale 0 to 100, 0 is no effect, 100 is complete control

## CCCc1cc(C(=O)NCC(F)(F)F)nn1Cc1ccnc(OC(F)F)c1 [Compound 127]
[1]
  Plant response rating, Rice: 20
[2]
  Plant response rating, Barnyardgrass: 70
[3]; Preemergence, 250 g ai/ha
  Plant response rating (scale of 0 to 100), Blackgrass: 85
[3]; [14]
  Blackgrass plant response rating: 20
[3]; [15]
  Blackgrass plant response rating: 60
[3]; 13 to 15 days
  Plant response rating, Blackgrass: 60
[4]; Preemergence, 250 g ai/ha
  Plant response rating (scale of 0 to 100), Wheat: 85
[4]; [14]
  Wheat plant response rating: 5
[4]; [15]
  Wheat plant response rating: 40
[4]; 13 to 15 days
  Plant response rating, Wheat: 85
[5]; Preemergence, 250 g ai/ha
  Plant response rating (scale of 0 to 100), Lambsquarters: 100
[5]; [14]
  Lambsquarters plant response rating: 100
[5]; [15]
  Lambsquarters plant response rating: 80
[5]; 13 to 15 days
  Plant response rating, Lambsquarters: 90
[6]; Preemergence, 250 g ai/ha
  Plant response rating (scale of 0 to 100), Nutsedge, Yellow: 85
[6]; [14]
  Nutsedge, Yellow plant response rating: 25
[6]; [15]
  Nutsedge, Yellow plant response rating: 50
[6]; 13 to 15 days
  Plant response rating, Nutsedge, Yellow: 70
[7]; [16]
  Plant response rating (scale of 0 to 100 where 0 is no effect and 100 is complete control), Ryegrass, Italian: 5
[7]; postemergence, 62 g ai/ha, scale 0 to 100
  Ryegrass, Italian plant response rating: 5
[7]; [17]
  Plant response rating, Ryegrass, Italian: 40
[7]; [18]
  Plant response rating, Ryegrass, Italian: 10
[8]
  Plant response rating (scale of 0 to 100 where 0 is no effect and 100 is complete control), Foxtail, Giant: 10
  Foxtail, Giant plant response rating: 15
[8]; [19]
  Plant response rating, Foxtail, Giant: 35
[8]; [20]
  Plant response rating, Foxtail, Giant: 15
[9]
  Plant response rating (scale of 0 to 100 where 0 is no effect and 100 is complete control), Johnsongrass: 5
  Johnsongrass plant response rating: 5
[9]; [19]
  Plant response rating, Johnsongrass: 25
[9]; [20]
  Plant response rating, Johnsongrass: 30
[10]
  Plant response rating (scale of 0 to 100 where 0 is no effect and 100 is complete control), Morningglory: 65
  Morningglory plant response rating: 70
[10]; [19]
  Plant response rating, Morningglory: 85
[10]; [20]
  Plant response rating, Morningglory: 60
[11]
  Plant response rating (scale of 0 to 100 where 0 is no effect and 100 is complete control), Nutsedge, Yellow: 5
  Nutsedge, Yellow plant response rating: 5
[11]; [19]
  Plant response rating, Nutsedge, Yellow: 25
[11]; [20]
  Plant response rating, Nutsedge, Yellow: 15
[12]; [16]
  Plant response rating (scale of 0 to 100 where 0 is no effect and 100 is complete control), Pigweed: 35
[12]
  Pigweed plant response rating: 70
[12]; [19]
  Plant response rating, Pigweed: 85
[12]; [20]
  Plant response rating, Pigweed: 75
[13]
  Plant response rating (scale of 0 to 100 where 0 is no effect and 100 is complete control), Oat, Wild: 5
  Oat, Wild plant response rating: 5
[13]; [19]
  Plant response rating, Oat, Wild: 35
[13]; [20]
  Plant response rating, Oat, Wild: 5

## CCCc1cc(C(=O)NC2CC2)nn1Cc1ccnc(OC(F)F)c1 [Compound 205]
[1]
  Plant response rating, Rice: 0
[2]
  Plant response rating, Barnyardgrass: 50
[3]; [14]
  Blackgrass plant response rating: 80
[3]; [15]
  Blackgrass plant response rating: 95
[3]; 13 to 15 days
  Plant response rating, Blackgrass: 95
[3]; [21]
  Blackgrass plant response rating: 100
[4]; [14]
  Wheat plant response rating: 5
[4]; [15]
  Wheat plant response rating: 15
[4]; 13 to 15 days
  Plant response rating, Wheat: 85
[4]; [21]
  Wheat plant response rating: 95
[5]; [14]
  Lambsquarters plant response rating: 85
[5]; [15]
  Lambsquarters plant response rating: 95
[5]; 13 to 15 days
  Plant response rating, Lambsquarters: 100
[5]; [21]
  Lambsquarters plant response rating: 100
[6]; [14]
  Nutsedge, Yellow plant response rating: 40
[6]; [15]
  Nutsedge, Yellow plant response rating: 65
[6]; 13 to 15 days
  Plant response rating, Nutsedge, Yellow: 75
[6]; [21]
  Nutsedge, Yellow plant response rating: 90
[7]; [17]
  Plant response rating, Ryegrass, Italian: 5
[7]; [18]
  Plant response rating, Ryegrass, Italian: 5
[8]
  Plant response rating (scale of 0 to 100 where 0 is no effect and 100 is complete control), Foxtail, Giant: 20
  Foxtail, Giant plant response rating: 35
[8]; [19]
  Plant response rating, Foxtail, Giant: 65
[8]; [20]
  Plant response rating, Foxtail, Giant: 70
[9]
  Plant response rating (scale of 0 to 100 where 0 is no effect and 100 is complete control), Johnsongrass: 5
  Johnsongrass plant response rating: 10
[9]; [19]
  Plant response rating, Johnsongrass: 45
[9]; [20]
  Plant response rating, Johnsongrass: 20
[10]
  Plant response rating (scale of 0 to 100 where 0 is no effect and 100 is complete control), Morningglory: 65
  Morningglory plant response rating: 70
[10]; [19]
  Plant response rating, Morningglory: 95
[10]; [20]
  Plant response rating, Morningglory: 80
[11]
  Plant response rating (scale of 0 to 100 where 0 is no effect and 100 is complete control), Nutsedge, Yellow: 5
  Nutsedge, Yellow plant response rating: 5
[11]; [19]
  Plant response rating, Nutsedge, Yellow: 15
[11]; [20]
  Plant response rating, Nutsedge, Yellow: 15
[12]
  Pigweed plant response rating: 85
[12]; [19]
  Plant response rating, Pigweed: 100
[12]; [20]
  Plant response rating, Pigweed: 85
[13]
  Plant response rating (scale of 0 to 100 where 0 is no effect and 100 is complete control), Oat, Wild: 5
  Oat, Wild plant response rating: 5
[13]; [19]
  Plant response rating, Oat, Wild: 10
[13]; [20]
  Plant response rating, Oat, Wild: 5
